Measured values published in the NIST ThermoML archive (doi:10.1016/j.jct.2014.07.001).
Numbers after ± are expanded uncertainties.

Test: xn = mol fraction of the nth substance listed
Conditions: Drop volume

CCCC[n+]1ccc(C)cc1.F[B-](F)(F)F [1-butyl-4-methylpyridinium tetrafluoroborate] + CO
surface tension liquid-gas [mN/m]
Conditions | 293.15 K | 303.15 K | 313.15 K | 323.15 K
x1 = 0.0247 | 23.3 ± 0.27 | 22.55 ± 0.26 | 21.71 ± 0.25 | 20.88 ± 0.24
x1 = 0.0983 | 25.35 ± 0.29 | 24.66 ± 0.28 | 23.92 ± 0.27 | 23.23 ± 0.27
x1 = 0.195 | 27.93 ± 0.32 | 27.31 ± 0.31 | 26.68 ± 0.3 | 26.12 ± 0.3
x1 = 0.2914 | 30.53 ± 0.35 | 29.98 ± 0.34 | 29.46 ± 0.33 | 29.05 ± 0.33
x1 = 0.3909 | 33.11 ± 0.37 | 32.62 ± 0.37 | 32.2 ± 0.36 | 31.91 ± 0.36
x1 = 0.4915 | 35.62 ± 0.4 | 35.17 ± 0.4 | 34.81 ± 0.4 | 34.6 ± 0.39
x1 = 0.5378 | 36.77 ± 0.42 | 36.34 ± 0.41 | 36.02 ± 0.41 | 35.84 ± 0.41
x1 = 0.61 | 38.46 ± 0.44 | 38.04 ± 0.43 | 37.73 ± 0.43 | 37.57 ± 0.43
x1 = 0.6875 | 40.19 ± 0.46 | 39.77 ± 0.46 | 39.45 ± 0.45 | 39.29 ± 0.45
x1 = 0.7911 | 42.37 ± 0.49 | 41.9 ± 0.49 | 41.55 ± 0.48 | 41.32 ± 0.48
x1 = 0.842 | 43.32 ± 0.51 | 42.81 ± 0.5 | 42.4 ± 0.49 | 42.1 ± 0.49
x1 = 0.8754 | 43.91 ± 0.51 | 43.36 ± 0.51 | 42.91 ± 0.5 | 42.54 ± 0.5
x1 = 1 | 45.82 ± 0.54 | 45.09 ± 0.54 | 44.41 ± 0.53 | 43.71 ± 0.52

CCC[n+]1ccccc1.F[B-](F)(F)F [1-propylpyridinium tetrafluoroborate] + CO
surface tension liquid-gas [mN/m]
Conditions | 293.15 K | 303.15 K | 313.15 K | 323.15 K
x1 = 0.0478 | 23.84 ± 0.27 | 23.07 ± 0.27 | 22.2 ± 0.26 | 21.35 ± 0.25
x1 = 0.0964 | 25.01 ± 0.29 | 24.31 ± 0.28 | 23.48 ± 0.27 | 22.68 ± 0.26
x1 = 0.1993 | 27.35 ± 0.31 | 26.84 ± 0.31 | 26.18 ± 0.3 | 25.55 ± 0.29
x1 = 0.3036 | 29.78 ± 0.34 | 29.49 ± 0.33 | 28.99 ± 0.33 | 28.48 ± 0.32
x1 = 0.3934 | 32.15 ± 0.36 | 31.84 ± 0.36 | 31.46 ± 0.36 | 31.02 ± 0.35
x1 = 0.4987 | 35.23 ± 0.4 | 34.81 ± 0.4 | 34.46 ± 0.39 | 34.04 ± 0.39
x1 = 0.5926 | 38.18 ± 0.44 | 37.63 ± 0.43 | 37.21 ± 0.43 | 36.76 ± 0.42
x1 = 0.6946 | 41.44 ± 0.48 | 40.83 ± 0.47 | 40.29 ± 0.46 | 39.77 ± 0.46
x1 = 0.7836 | 44.31 ± 0.51 | 43.66 ± 0.51 | 43.04 ± 0.5 | 42.45 ± 0.49
x1 = 0.8822 | 47.5 ± 0.55 | 46.81 ± 0.55 | 46.15 ± 0.54 | 45.44 ± 0.53
x1 = 0.945 | 49.5 ± 0.58 | 48.78 ± 0.57 | 48.1 ± 0.57 | 47.36 ± 0.56
x1 = 1 | 51.29 ± 0.61 | 50.51 ± 0.6 | 49.79 ± 0.59 | 49.03 ± 0.58

CO [methanol] + CCCC[n+]1cccc(C)c1.F[B-](F)(F)F
x2 = 0
Conditions | surface tension liquid-gas [mN/m]
293.15 K | 22.6 ± 0.26
303.15 K | 21.81 ± 0.25
313.15 K | 20.93 ± 0.24
323.15 K | 20.05 ± 0.23

CO [methanol] + CCCC[n+]1ccc(C)cc1.F[B-](F)(F)F
x2 = 0
Conditions | surface tension liquid-gas [mN/m]
293.15 K | 22.6 ± 0.26
303.15 K | 21.81 ± 0.25
313.15 K | 20.93 ± 0.24
323.15 K | 20.05 ± 0.23

CCCC[n+]1ccccc1.F[B-](F)(F)F [1-butylpyridinium tetrafluoroborate] + CO
surface tension liquid-gas [mN/m]
Conditions | 293.15 K | 303.15 K | 313.15 K | 323.15 K
x1 = 0.025 | 23.33 ± 0.27 | 22.59 ± 0.26 | 21.77 ± 0.25 | 20.96 ± 0.24
x1 = 0.0527 | 24.1 ± 0.28 | 23.41 ± 0.27 | 22.64 ± 0.26 | 21.9 ± 0.25
x1 = 0.0987 | 25.37 ± 0.29 | 24.73 ± 0.28 | 24.04 ± 0.28 | 23.38 ± 0.27
x1 = 0.1944 | 27.89 ± 0.32 | 27.37 ± 0.31 | 26.74 ± 0.3 | 26.23 ± 0.3
x1 = 0.2933 | 30.44 ± 0.34 | 29.92 ± 0.34 | 29.38 ± 0.33 | 28.96 ± 0.33
x1 = 0.3978 | 33.04 ± 0.37 | 32.55 ± 0.37 | 32.07 ± 0.36 | 31.7 ± 0.36
x1 = 0.4934 | 35.37 ± 0.4 | 34.9 ± 0.4 | 34.46 ± 0.39 | 34.11 ± 0.39
x1 = 0.5891 | 37.67 ± 0.43 | 37.21 ± 0.42 | 36.77 ± 0.42 | 36.46 ± 0.42
x1 = 0.6784 | 39.74 ± 0.46 | 39.26 ± 0.45 | 38.82 ± 0.45 | 38.5 ± 0.44
x1 = 0.7864 | 42.16 ± 0.49 | 41.64 ± 0.48 | 41.17 ± 0.48 | 40.81 ± 0.47
x1 = 0.8724 | 44.06 ± 0.52 | 43.5 ± 0.51 | 42.97 ± 0.5 | 42.54 ± 0.5
x1 = 0.93 | 45.33 ± 0.53 | 44.76 ± 0.53 | 44.17 ± 0.52 | 43.69 ± 0.52
x1 = 1 | 46.9 ± 0.56 | 46.3 ± 0.55 | 45.69 ± 0.54 | 45.11 ± 0.54
